Data: PubChem BioAssay (NCI)
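Tested at 5 concentrations; 48 h exposure; 96-well plates; endpoints linearly interpolated, else capped at highest concentration. TGI marks complete inhibition of growth.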

Experiments:
Test in all cases: DTP human tumour cell line panel, 48 h
UO-31 renal = test system: UO-31 renal
SR leukemia = test system: SR leukemia
MDA-N = test system: MDA-N
BT-549 breast = test system: BT-549 breast
IGROV1 ovarian = test system: IGROV1 ovarian
SK-MEL-28 melanoma = test system: SK-MEL-28 melanoma
A498 renal = test system: A498 renal
A549 NSCLC = test system: A549 NSCLC
MALME-3M melanoma = test system: MALME-3M melanoma
MDA-MB-435 = test system: MDA-MB-435
RXF 393 renal = test system: RXF 393 renal
NCI-H23 lung = test system: NCI-H23 lung
SK-OV-3 ovarian = test system: SK-OV-3 ovarian
SK-MEL-5 melanoma = test system: SK-MEL-5 melanoma
SF-539 CNS = test system: SF-539 CNS
EKVX NSCLC = test system: EKVX NSCLC
MOLT-4 leukemia = test system: MOLT-4 leukemia
NCI-H460 lung = test system: NCI-H460 lung
TK-10 renal = test system: TK-10 renal
HOP-62 NSCLC = test system: HOP-62 NSCLC

Row | SMILES | TGI (UO-31 renal) | TGI (SR leukemia) | TGI (MDA-N) | TGI (BT-549 breast) | TGI (IGROV1 ovarian) | TGI (SK-MEL-28 melanoma) | TGI (A498 renal) | TGI (A549 NSCLC) | TGI (MALME-3M melanoma) | TGI (MDA-MB-435) | TGI (RXF 393 renal) | TGI (NCI-H23 lung) | TGI (SK-OV-3 ovarian) | TGI (SK-MEL-5 melanoma) | TGI (SF-539 CNS) | TGI (EKVX NSCLC) | TGI (MOLT-4 leukemia) | TGI (NCI-H460 lung) | TGI (TK-10 renal) | TGI (HOP-62 NSCLC)
1 | CN(C)Cc1cc(N=Nc2c(Cl)cccc2Cl)ccc1O | > 100 µM | > 100 µM | > 100 µM | > 100 µM | > 100 µM | > 100 µM | > 100 µM | > 100 µM | > 100 µM | > 100 µM | > 100 µM | > 100 µM | > 100 µM | 52.1 µM | > 100 µM | > 100 µM | > 100 µM | > 100 µM | > 100 µM | > 100 µM
2 | O=S(=O)(O)c1ccc(N=Nc2c(O)ccc3ccccc23)cc1 | > 100 µM | > 100 µM | > 100 µM | > 100 µM | > 100 µM | > 100 µM | > 100 µM | > 100 µM | > 100 µM | > 100 µM | > 100 µM | > 100 µM | > 100 µM | > 100 µM | > 100 µM | > 100 µM | > 100 µM | > 100 µM | > 100 µM | > 100 µM
3 | O=C1CSC2(CC(/C=C/c3cccc(Br)c3)=NN2c2cccc(S(=O)(=O)O)c2)N1c1nc2ccccc2s1 (configuration not stated) | > 100 µM | > 100 µM | > 100 µM | > 100 µM | > 100 µM | > 100 µM | > 100 µM | > 100 µM | > 100 µM | > 100 µM | > 100 µM | > 100 µM | > 100 µM | > 100 µM | > 100 µM | > 100 µM | > 100 µM | > 100 µM | > 100 µM | > 100 µM
4 | N#Cc1c(Cl)cccc1Oc1ccc(S(=O)(=O)/N=C(\NO)Nc2ccc(Cl)cc2)cc1 | 27.2 µM | 78.2 µM | 29.9 µM | 30.9 µM | 34.4 µM | 41 µM | 30.6 µM | 32.2 µM | 33.9 µM | 31.7 µM | 32.2 µM | 34.6 µM | – | 31 µM | 32.3 µM | 29 µM | 44.1 µM | 36.4 µM | 30.7 µM | 34.1 µM
5 | COP(=N[Si](C)(C)C)(OC)OC | > 100 µM | > 100 µM | > 100 µM | > 100 µM | > 100 µM | > 100 µM | > 100 µM | > 100 µM | > 100 µM | > 100 µM | > 100 µM | > 100 µM | > 100 µM | > 100 µM | > 100 µM | > 100 µM | > 100 µM | > 100 µM | > 100 µM | > 100 µM
6 | Cc1nc(C)c(N2CCN(C(=O)NC(CCC(=O)O)C(=O)O)CC2)c(=O)[nH]1 (configuration not stated) | > 100 µM | > 100 µM | > 100 µM | > 100 µM | > 100 µM | > 100 µM | > 100 µM | > 100 µM | > 100 µM | > 100 µM | > 100 µM | > 100 µM | > 100 µM | – | > 100 µM | > 100 µM | > 100 µM | > 100 µM | > 100 µM | > 100 µM
7 | Cc1cccc(/C=N/NC(=S)NC2CCCCC2)n1 | > 89.5 µM | > 78.3 µM | > 93.1 µM | > 100 µM | > 100 µM | > 100 µM | > 71.4 µM | > 88.9 µM | > 86.4 µM | > 100 µM | 76.1 µM | > 100 µM | > 100 µM | > 100 µM | 88.6 µM | > 100 µM | 13.9 µM | > 67.8 µM | > 100 µM | > 90.9 µM
8 | Cc1cc2c(c(C=Nc3ccc(N(C)C)cc3)c1)OC1(C=C2)Oc2ccccc2C(=O)N1C (configuration not stated) | 23.2 µM | > 100 µM | 28.1 µM | 29.4 µM | 27.1 µM | 29.7 µM | 42.1 µM | 55.6 µM | 33.4 µM | 26.7 µM | > 58 µM | 28.4 µM | 66.6 µM | 27.6 µM | 28.2 µM | 27.1 µM | 23.5 µM | 36.5 µM | 30.7 µM | > 67.5 µM
9 | CCOC(=O)NC(OCCN(C)C)(C(F)(F)F)C(F)(F)F | > 100 µM | > 100 µM | > 100 µM | > 100 µM | > 100 µM | > 100 µM | > 100 µM | > 100 µM | > 100 µM | > 100 µM | > 100 µM | > 100 µM | > 100 µM | > 100 µM | > 100 µM | > 100 µM | > 100 µM | > 100 µM | > 100 µM | > 100 µM
10 | COC(=O)C1=C(O)C(C(=O)OC)[C@]2(O)[C@H](C(=O)OC)[C@H]1C[C@@H](c1ccc(Cl)cc1Cl)[C@H]2C(=O)OC (some centres not stated) | 21.1 µM | 19.2 µM | 11 µM | 66.6 µM | 19.3 µM | 53.6 µM | 30.4 µM | 24.5 µM | 20.6 µM | 21.2 µM | 33.7 µM | 19.1 µM | 47.9 µM | 16.8 µM | 17.5 µM | > 100 µM | 8.98 µM | 23.2 µM | 26.2 µM | 20.9 µM
11 | CCOC(=O)NC(Nc1cccc(F)c1)(C(F)(F)F)C(F)(F)F | > 100 µM | > 100 µM | > 100 µM | > 100 µM | > 100 µM | > 100 µM | > 100 µM | > 100 µM | > 100 µM | > 100 µM | > 100 µM | > 100 µM | > 100 µM | > 100 µM | > 100 µM | > 100 µM | > 100 µM | > 100 µM | > 100 µM | > 100 µM
12 | O=c1ccc(-c2ccc(-n3ccnc3)cc2)nn1CCO | > 100 µM | > 100 µM | > 100 µM | > 100 µM | > 100 µM | > 100 µM | > 100 µM | > 100 µM | > 100 µM | > 100 µM | > 100 µM | > 100 µM | > 100 µM | > 100 µM | > 100 µM | > 100 µM | > 100 µM | > 100 µM | > 100 µM | > 100 µM
13 | CSC1=C(C)S/C(=C\c2ccc(/C=C3\SC(C)=C(SC)S3)cc2)S1 | > 100 µM | > 100 µM | > 100 µM | > 100 µM | > 100 µM | > 100 µM | > 100 µM | > 100 µM | > 100 µM | > 100 µM | 79 µM | > 100 µM | > 100 µM | > 100 µM | 92.5 µM | > 100 µM | > 100 µM | > 100 µM | > 100 µM | > 100 µM
14 | COC(=O)C1=C(O)C(C(=O)OC)[C@]2(O)[C@H](C(=O)OC)[C@H]1C[C@@H](c1ccc(O)cc1)[C@H]2C(=O)OC (some centres not stated) | > 100 µM | > 100 µM | > 100 µM | 91.5 µM | > 100 µM | > 100 µM | > 100 µM | > 100 µM | > 100 µM | > 100 µM | 45.1 µM | > 100 µM | 61.6 µM | > 100 µM | 88.3 µM | > 100 µM | > 100 µM | 74.5 µM | 86.4 µM | 55.4 µM
15 | COc1ccccc1/[N+]([O-])=C/c1ccccc1OC(=S)S | > 100 µM | > 100 µM | 35.9 µM | > 100 µM | 77.2 µM | > 100 µM | > 100 µM | > 100 µM | > 100 µM | 36 µM | > 100 µM | > 100 µM | > 100 µM | > 100 µM | > 100 µM | > 100 µM | > 100 µM | > 100 µM | > 100 µM | –
16 | Clc1ccccc1-c1nn2c(CCCCCCCCc3nnc4sc(-c5ccccc5Cl)nn34)nnc2s1 | > 100 µM | > 100 µM | > 100 µM | > 100 µM | – | > 100 µM | > 100 µM | > 100 µM | > 100 µM | > 100 µM | > 100 µM | > 100 µM | > 100 µM | > 100 µM | > 100 µM | > 100 µM | > 100 µM | > 100 µM | > 100 µM | > 100 µM
17 | O=C1c2scc(-c3ccc(F)cc3)c2-n2cccc21 | > 100 µM | 44 µM | 28.8 µM | 79.7 µM | > 100 µM | > 100 µM | 3.1 µM | > 100 µM | > 100 µM | 31.4 µM | > 100 µM | – | > 100 µM | > 100 µM | – | > 100 µM | > 100 µM | > 100 µM | > 100 µM | 64.4 µM
18 | CCOC(=O)/C(=C\NC[C@@H](C)O)c1nc2ccccc2[nH]1 | 4.02 µM | 84.3 µM | > 100 µM | > 100 µM | > 100 µM | > 100 µM | > 100 µM | > 100 µM | > 100 µM | > 100 µM | > 100 µM | > 100 µM | > 100 µM | > 100 µM | > 100 µM | > 100 µM | – | > 100 µM | > 100 µM | > 100 µM
19 | Nc1nc([O-])c([I+]c2ccccc2)c(=O)[nH]1 | > 100 µM | > 100 µM | > 100 µM | > 100 µM | > 100 µM | > 100 µM | > 100 µM | > 100 µM | > 100 µM | > 100 µM | > 100 µM | > 100 µM | – | > 100 µM | > 100 µM | > 100 µM | > 100 µM | > 100 µM | > 100 µM | > 100 µM
